Results on one compound are retold here after US20220364056A1, “SHORT-CHAIN FATTY ACID PENTANOATE AS ENHANCER FOR CELLULAR THERAPY AND ANTI-TUMOR THERAPY” (PHILIPPS-UNIVERSITÄT MARBURG, priority 2019, published 2022).

The structures appear in SMILES notation.

This assay has as its system HDAC. The assay can be described thus: fluorogenic HDAC assay on CTL-derived cell lysates. The note with it: unstimulated CTLs set to 1.0. It is filed as biochemical, murine. As for the experimental part: (A) Experimental design for the treatment of CTLs with the water-soluble fraction of intestinal content derived from SPF or GF mice. (B and C) Frequencies of IFN-γ- and TNF-α-producing CTLs treated with the extract from luminal content derived from indicated organs. Representative results of two experiments are shown (n=3). (D) ELISA was performed to measure the secretion of TNF-α by CLTs treated as shown in (A). (E) Quantitative measurement of total SCFA amounts in fecal samples of SPF and GF mice (n=5). (F and G) The percentage of IFN-γ^+ TNF-α^+ CTLs treated with the indicated SCFAs for three days (n=3, one of three independent experiments is shown). (H) The secretion of TNF-α from CTLs treated with SCFAs was determined by ELISA (n=3, one of two independent experiments is shown). (I) The fluorogenic HDAC assay was applied to measure the HDAC inhibitory activity of SCFAs on CTLs. The value for unstimulated CTLs was arbitrarily set to 1.0. Four independent experiments were performed. (J and K) Representative contour plots (J) and bar graphs (K) showing the frequency of IFN-γ+ and TNF-α+ cells after pentanoate (2 mM) or VPA (0.5 mM) administration. Three similar experiments were performed. (L and M) The frequency of Eomes- and T-bet-expressing CTLs treated with pentanoate (2 mM) or VPA (0.5 mM) for three days was analyzed by flow cytometry (n=4). […]

`CCCCC(=O)O` [pentanoate]: the “HDAC activity of CTL-derived cell lysates” value is reported as “strong reduction of HDAC activity”.
